Measured values as given in PubChem BioAssay (NCI).
Values joined by “and” are separate entries in the source; they are usually repeats but may differ in a detail not shown here. Equal values may be shown once.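 Growth conditions: 96-well plates. Treatment: test compound, 48 hours, 5 concentrations. Analysis: linear interpolation between bracketing concentrations; unreached endpoints set to highest concentration. Here, GI50 denotes the concentration required for 50% inhibition of growth. At the TGI there is no net growth.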

What was measured:
Assay in all cases: NCI-60 cell line screen, 48 h
IGROV1 ovarian = system: IGROV1 ovarian
SNB-75 CNS = system: SNB-75 CNS
CCRF-CEM leukemia = system: CCRF-CEM leukemia
ACHN renal = system: ACHN renal
MALME-3M melanoma = system: MALME-3M melanoma
SNB-19 CNS = system: SNB-19 CNS
BT-549 breast = system: BT-549 breast
HCT-15 colon = system: HCT-15 colon
SW-620 colon = system: SW-620 colon
SF-539 CNS = system: SF-539 CNS

| Compound | TGI (IGROV1 ovarian) | TGI (SNB-75 CNS) | TGI (CCRF-CEM leukemia) | GI50 (ACHN renal) | TGI (ACHN renal) | TGI (MALME-3M melanoma) | TGI (SNB-19 CNS) | GI50 (BT-549 breast) | TGI (BT-549 breast) | GI50 (HCT-15 colon) | TGI (HCT-15 colon) | GI50 (SW-620 colon) | TGI (SW-620 colon) | GI50 (IGROV1 ovarian) | GI50 (SNB-75 CNS) | GI50 (MALME-3M melanoma) | GI50 (SNB-19 CNS) | GI50 (SF-539 CNS) | TGI (SF-539 CNS) | GI50 (CCRF-CEM leukemia) |
| --- | --- | --- | --- | --- | --- | --- | --- | --- | --- | --- | --- | --- | --- | --- | --- | --- | --- | --- | --- | --- |
| COc1cc(NCc2ccc3nc(N)nc(N)c3c2C)cc(OC)c1OC (tested in a mixture with another compound) | 68.6 µM | 52.7 µM | 86 µM | 0.0736 µM and 0.025 µM | 32.8 µM | 30 µM and 49.4 µM | 113 µM | 0.0611 µM | 34.2 µM and 45.4 µM | 0.000451 µM | 51.7 µM | 0.000285 µM | 16.4 µM and 50.9 µM |  |  |  |  |  |  |  |
| COc1ccc(-c2nc3ccc(-c4nc5ccc(N6CCN(c7ccccc7)CC6)cc5[nH]4)cc3[nH]2)cc1OC | 3.44 µM | 3.8 µM | 2.54 µM | 2.28 µM | 10.2 µM | 2.52 µM | 3.59 µM | 3.31 µM | 10.9 µM | 5.13 µM | > 100 µM | 1.15 µM | 2.71 µM | 1.65 µM | 1.06 µM | 1.05 µM | 1.93 µM | 1.37 µM | 2.81 µM |  |
| COc1c(OC[C@H](O)CN2CCOCC2)ccc2c3n(c(=NC(=O)c4cccnc4C)nc12)CCN3 | 0.343 µM | 1.18 µM | > 50 µM | 0.411 µM | > 50 µM | > 50 µM | > 50 µM | 0.365 µM | 46.6 µM | 1.62 µM | > 50 µM | 49.4 µM | > 50 µM | 0.06 µM | 0.02 µM | 0.982 µM | 5.1 µM | 0.543 µM | 9.91 µM | 1.67 µM |
| CNCC#Cc1c(F)ccc2c1/C(=C/c1[nH]ccc1OC)C(=O)N2 | 3.15 µM | 1.81 µM | 0.954 µM | 0.053 µM | 2.64 µM | 2.55 µM | 2.89 µM | 0.338 µM | 1.54 µM | 0.0866 µM | 2.78 µM | 0.136 µM | 2.38 µM | 0.317 µM | 0.0786 µM | 0.608 µM | 0.621 µM | 0.243 µM | 0.853 µM | 0.107 µM |
| CCCC(=O)Nc1cc2c3c(c1)CCCN3CCC2 | > 10 µM | > 10 µM | > 10 µM |  | > 10 µM | > 10 µM | > 10 µM |  | > 10 µM |  | > 10 µM |  | > 10 µM |  |  |  |  |  | > 10 µM |  |
| COc1ccc2[nH]cc(C3(c4c[nH]c5ccc(OC)cc45)C(=O)Nc4ccc(F)cc43)c2c1 | 12.6 µM | 8.23 µM | 22.4 µM | 2.93 µM | 10.1 µM | 22.4 µM | 14.6 µM | 3.21 µM | 11.7 µM | 4.12 µM | 20.2 µM | 3.04 µM | 11.5 µM | 2.64 µM | 1.38 µM | 2.44 µM | 3.28 µM | 3.24 µM | 10.5 µM | 3.04 µM |
| Cc1ncc(C(=O)Nc2ccc(CN3CCN(C)CC3)c(C(F)(F)F)c2)cc1C#Cc1cnc(N)c2ccncc12 | 1.42 µM | 2.21 µM | 10.8 µM | 0.303 µM | 1.5 µM | 1.59 µM | 4.62 µM | 2.85 µM | 8.33 µM | 1.26 µM | 4.42 µM | 1.49 µM | 3.3 µM | 0.152 µM | 0.854 µM | 0.361 µM | 1.8 µM | 0.548 µM | 1.79 µM | 2.73 µM |
| Cc1nn(-c2ccc(Cl)cc2)c2nc3c(nc12)C(=O)c1ccccc1-3 | > 100 µM | 46.3 µM | > 100 µM | > 100 µM | > 100 µM | > 100 µM | > 100 µM | > 100 µM | > 100 µM | > 100 µM | > 100 µM | > 100 µM | > 100 µM | > 100 µM | 10.9 µM | > 100 µM | > 100 µM | > 100 µM | > 100 µM | > 100 µM |
| CCSc1ncnc2c1ncn2C1OC(CO)C(O)C1O (stereo not given) | 18.1 µM | > 100 µM | > 100 µM | 0.425 µM | > 100 µM | > 100 µM | > 100 µM | 0.729 µM | > 44.2 µM | 0.274 µM | > 100 µM | 0.3 µM | > 100 µM | 0.442 µM | > 34.1 µM | 9.41 µM | 8.24 µM | 0.437 µM | > 100 µM | 0.146 µM |
| Cn1cc(C2=C(c3cn(CCCCO)c4ccccc34)C(=O)NC2=O)c2ccccc21 | > 22.9 µM | > 25 µM | > 25 µM | 6.38 µM | > 23.4 µM | > 25 µM | > 25 µM | 8.27 µM | > 19.6 µM | 7.72 µM | > 25 µM | 9.26 µM | > 25 µM | 12.2 µM | 2.31 µM | > 21.6 µM | 14.7 µM | 4.91 µM | 16.7 µM | 6 µM |
| Cc1ccc(NC(=O)CC2CC2)cc1-c1ccc(C(=O)NCC2CC2)cc1 | > 25 µM | > 25 µM | > 25 µM | > 25 µM | > 25 µM | > 25 µM | > 25 µM | > 25 µM | > 25 µM | > 25 µM | > 25 µM | > 25 µM | > 25 µM | > 25 µM | > 25 µM | > 25 µM | > 25 µM | > 25 µM | > 25 µM | > 25 µM |
| O=C1OCC2=C1C(c1cccc(Br)c1)c1cc3c(cc1N2CCO)CCC3 (stereo not given) | 10.7 µM | 9.41 µM | 10 µM | 0.0865 µM | 9.68 µM | 12.1 µM | 9.98 µM | 0.209 µM | 6.5 µM | 0.114 µM | 7.14 µM | 0.0583 µM | 8.47 µM | 0.157 µM | 0.0607 µM | 0.066 µM | 0.209 µM | 0.0801 µM | 5.46 µM | 0.148 µM |
| COc1cc(-n2cc(-c3ccc(F)cc3)[nH]c2=O)cc(OC)c1OC | > 100 µM | 86.3 µM |  | > 100 µM | > 100 µM | > 100 µM | > 100 µM | 83.4 µM | > 100 µM | > 100 µM | > 100 µM | > 100 µM | > 100 µM | > 100 µM | 31.5 µM | > 100 µM | > 100 µM | > 100 µM | > 100 µM |  |
